Laboratory results reported in patent US12031137B2, “Compositions comprising SASP modulators and senescence attenuators and uses thereof for modulating cellular senescence” (RSEM, LIMITED PARTNERSHIP, priority 2016, dated 2024).
One block for each molecule: values may come before it.

System: SEMA3A-FC
Assay: Sema 3A binding assay on plate-coated purified traps (saturation curves, KD)
Conditions: for Binding to SEMA3A: Table 2, Yes/No
Description: Sema 3A and AP-VEGF165 binding assays. Saturation curves for the determinations of KD of binding to SEMA 3A or VEGF165 were obtained as follow. Wells of high protein binding 96 well plates (Maxisorp, Nunc) were coated with purified traps diluted in PBS and blocked afterward with binding buffer (PBS containing 2% casein and 0.05% Tween 20). The SEMA3A-FC (R&D systems) or AP-VEGF165 ligands were diluted in binding buffer over an extensive range of concentrations and added to wells. Following an overnight incubation, wells were washed with PBS containing 0.05% tween. Bound SEMA3a-FC was detected using an HRP-linked anti-Human IgG (Biorad) and ECL substrate (Pierce). Alternatively, bound AP-VEGF165 was detected using CPD star substrate (Roche). The Chemiluminescent signal was acquired on a TECAN reader. Dissociation constant (KD) were determined by non-linear curve fitting using the Graph Pad prism software.
The relative affinity of traps of the present invention to SEMA3A and VEGF has been assessed. Traps were prepared as described in Example 8.

- Binding to SEMA3A: Yes
Molecule: Trap O: NRP1 trap a1a2-b1b2, aa about 22-583; SEQ ID NOs 77/78

- Binding to SEMA3A: Yes
Molecule: Iso-d: Secreted NRP1 isoform S11; 704 amino acids; a1a2-b1b2-c (in part); SEQ ID NO: 46

- Binding to SEMA3A: Yes
Molecule: Iso-c: Secreted NRP1 isoform-c/Siv; 609 amino acids; a1a2-b1b2-c (in part); SEQ ID NO: 45

- Binding to SEMA3A: Yes
Molecule: Iso-b: Secreted NRP1 isoform-b/S12; 644 amino acids; a1a2-b1b2-c (in part); SEQ ID NO: 44

- Binding to SEMA3A: No
- SEMA 3A-FC binding (dissociation constant) (traps coated on plate, overnight incubation): No binding
B1: Trap Q: NRP1 trap a1a2-b1b2, aa about 22-583, Y297A; SEQ ID NOs 79/80 (protein)
chain: FRNDKCGDTIKIESPGYLTSPGYPHSYHPSEKCEWLIQAPDPYQRIMINFNPHFDLEDRDCKYDYVEVFDGENENGHFRGKFCGKIAPPPVVSSGPFLFIKFVSDYETHGAGFSIRYELFKRGPECSQNYTTPSGVIKSPGFPEKYPNSLECTYIVFAPKMSEIILEFESFDLEPDSNPPGGMFCRYDRLEIWDGFPDVGPHIGRYCGQKTPGRIRSSSGILSMVFYTDSAIAKEGFSANYSVLQSSVSEDFKCMEALGMESGEIHSDQITASSQASTNWSAERSRLNYPENGWTPGEDSYREWIQVDLGLLRFVTAVGTQGAISKETKKKYYVKTYKIDVSSNGEDWITIKEGNKPVLFQGNTNPTDVVVAVFPKPLITRFVRIKPATWETGISMRFEVYGCKITDYPCSGMLGMVSGLISDSQITSSNQGDRNWMPENIRLVTSRSGWALPPAPHSYINEWLQIDLGEEKIVRGIIIQGGKHRENKVFMRKFKIGYSNNGSDWKMIMDDSKRKAKSFEGNNNYDTPELRTFPALSTRFIRIYPERATHGGLGLRMELLGCRSGSKENLYFQG

- Binding to SEMA3A: Yes
- Kd (traps coated on plate, overnight incubation, read-out: SEMA 3A-FC binding (dissociation constant)): 6.15 nM
B2: Trap R: NRP1 trap a1a2-b1b2-c, aa about 22-856, Y297A; SEQ ID NOs 69/70 (protein)
chain: FRNDKCGDTIKIESPGYLTSPGYPHSYHPSEKCEWLIQAPDPYQRIMINFNPHFDLEDRDCKYDYVEVFDGENENGHFRGKFCGKIAPPPVVSSGPFLFIKFVSDYETHGAGFSIRYELFKRGPECSQNYTTPSGVIKSPGFPEKYPNSLECTYIVFAPKMSEIILEFESFDLEPDSNPPGGMFCRYDRLEIWDGFPDVGPHIGRYCGQKTPGRIRSSSGILSMVFYTDSAIAKEGFSANYSVLQSSVSEDFKCMEALGMESGEIHSDQITASSQASTNWSAERSRLNYPENGWTPGEDSYREWIQVDLGLLRFVTAVGTQGAISKETKKKYYVKTYKIDVSSNGEDWITIKEGNKPVLFQGNTNPTDVVVAVFPKPLITRFVRIKPATWETGISMRFEVYGCKITDYPCSGMLGMVSGLISDSQITSSNQGDRNWMPENIRLVTSRSGWALPPAPHSYINEWLQIDLGEEKIVRGIIIQGGKHRENKVFMRKFKIGYSNNGSDWKMIMDDSKRKAKSFEGNNNYDTPELRTFPALSTRFIRIYPERATHGGLGLRMELLGCEVEAPTAGPTTPNGNLVDECDDDQANCHSGTGDDFQLTGGTTVLATEKPTVIDSTIQSEFPTYGFNCEFGWGSHKTFCHWEHDNHVQLKWSVLTSKTGPIQDHTGDGNFIYSQADENQKGKVARLVSPVVYSQNSAHCMTFWYHMSGSHVGTLRVKLRYQKPEEYDQLVWMAIGHQGDHWKEGRVLLHKSLKLYQVIFEGEIGKGNLGGIAVDDISINNHISQEDCAKPADLDKKNPEIKIDETGSTPGYEGEGEGDKNISRKPGNVLKTLDPRSGSKENLYFQG
